Measured values: patent US11884710B2, “Peptide compounds and methods of use in wound healing” (priority 2013, dated 2024)
Read-outs that look alike come from different tables or passages of the source. Square brackets hold non-standard residues; d marks the D form. Ends that are not written are not given here. PEG2 = NCCOCCOCCC(=O)O

What was measured:
[1] = test system: Pseudomonas clinical isolate B64; assay: BIOSCREEN C growth assay, peptide plus antibiotic combinations; assay type: cell-based, Pseudomonas aeruginosa; conditions: for MIC: Pseudomonas
Protocol: FIGS. 28A and 28B show the effect of BCC002-5R-MP (SEQ ID NO:21) in combination with Cefotaxime on MIC using Pseudomonas clinical isolate B64. Cefotaxime (Cefo) and peptide combinations included a constant amount of Cefotaxime (2.81 μg/ml) with suboptimal amounts of peptide (0, 0.34, 1.01, and 3.04 μg/ml). […] FIG. 28B is a histogram showing Fractional area (FA), which is an indication of the MIC.
FIG. 29B is a histogram showing Fractional area (FA), which is an indication of the MIC.
FIGS. 30A and 30B show the effect of BCC02-5R-MP (SEQ ID NO:21) in combination with Levofloxacin (Levo) and peptide combinations included a constant amount of Levofloxacin (3.6 μg/ml) with suboptimal amounts of peptide (0, 0.34, 1.01, 3.04 μg/ml). […] FIG. 30B is a histogram showing Fractional area (FA), which is an indication of the MIC.
The peptide and antibiotics were set up in the wells of the microtiter plate at starting ratios of MIC equivalents of antibiotic:peptide at 3:1, 1:1, and 1:3. They were serially diluted to concentrations well below suboptimal/sublethal levels of the antibiotic and peptide. The organism was added (1×10^5 CFU/well), the BIOSCREEN C™ assay (Growth Systems USA, Piscataway, N.J.) was performed, and data was collected over 24 hours.

[2] = test system: Pseudomonas aeruginosa ATCC 27853; assay: In vitro bactericidal assay, P. aeruginosa ATCC 27853 (FIGS. 12-14); assay type: cell-based; conditions: for bactericidal effectiveness concluded by extrapolation: even at substantially lower concentrations of the peptide
Protocol: (§1) Each of the test peptides was used at 25, 12.5 6.25, and 3.12 μM. The gentamicin was used at 4 μg/ml. 1×10^6/ml Pseudomonas aeruginosa ATCC® 27853™ (American Type Culture Collection, Manassas, Va.) were incubated with the peptides, negative buffer control (tryptone saline), and positive control gentamicin for 180 minutes at pH 7.2. 50 μl aliquots were plated out on agar plates and incubated overnight. Colony forming units were counted after overnight incubation and CFU/ml calculated.
as §1, with “12.5,” for “12.5”, “5.5.” for “7.2.”
FIG. 14 is a comparison of bactericidal activity of CAP37 peptides 120-146WR (SEQ ID NO:30), 120-146WH (SEQ ID NO:31), 120-146QR (SEQ ID NO:28), 120-146QH (SEQ ID NO:29), 120-146QR-5RMP (SEQ ID NO:32), and 120-146QH-5RMP (SEQ ID NO:33) for Pseudomonas aeruginosa ATCC® 27853™ (American Type Culture Collection, Manassas, Va.). 1×10^6/ml Pseudomonas aeruginosa ATCC® 27853™ were incubated with the peptides at 150, 75, and 37.5 μg/ml and negative buffer control (tryptone saline) for 180 minutes at pH 5.5. 50 μl aliquots were plated out on agar plates and incubated overnight. Colony forming units were counted after overnight incubation and CFU/ml calculated.
(§2) For FIGS. 10-13, in vitro bactericidal assays were performed using a starting inoculum of 1×10^6 CFU/ml of the bacterial suspension. The CFU remaining at the end of the 60-180 minute incubation was determined, and the data was plotted as log reduction in CFU/ml.
(§3) In particular, each of the test peptides (CAP37 peptides 120-146WR, 120-146WH, and 95-122 (SEQ ID NOS:30, 31, and 26, respectively)) was used at 25, 12.5, 6.25, and 3.12 μM. Gentamicin was used at 4 μg/ml. 1×10^6/ml Acinetobacter baumannii ATCC® BAA-747™ or Pseudomonas aeruginosa ATCC® 27853™ (American Type Culture Collection, Manassas, Va.) were incubated with the peptides, negative buffer control (tryptone saline), and positive control gentamicin at pH 5.5 or 7.2. A 60 minute incubation was used for Acinetobacter baumannii ATCC® BAA-747™, while a 180 minute incubation was used for Pseudomonas aeruginosa ATCC® 27853™. 50 μl aliquots were plated out on agar plates and incubated overnight. Colony forming units were counted after overnight incubation and CFU/ml calculated.
For FIG. 14, 1×10^6/ml Pseudomonas aeruginosa ATCC® 27853™ were incubated with each of the test peptides (CAP37 peptides 120-146WR, 120-146WH, 120-146QR, 120-146QH, 120-146QR-5RMP, and 120-146QH-5RMP (SEQ ID NOS:30, 31, 28, 29, 32, and 33, respectively)) at 150, 75, and 37.5 μg/ml, or negative buffer control (tryptone saline), for 180 minutes at pH 5.5. 50 μl aliquots were plated out on agar plates and incubated overnight. Colony forming units were counted after overnight incubation and CFU/ml calculated.

[3] = test system: full thickness excisional wounds; assay: Swine full thickness excisional dermal wound model; assay type: in vivo; conditions: for Mean Wound Healing (%): topical 3 mg/ml, 0.20 ml daily
Protocol: In this Example, peptide compounds of the presently disclosed inventive concepts were evaluated as to their activity on the dermal wound healing process in a clinically relevant swine full thickness excisional wound model. Three different peptide formulations (Group B, Peptide 95-122 (SEQ ID NO:26); Group C, Peptide 120-146WH (SEQ ID NO:31); and Group D, Peptide 120-146QH-5RMP (SEQ ID NO:33)) were each evaluated at the same concentration (3 mg/ml). Sterile saline served as the control (Group A).
(§4) Full thickness excisional wounds were induced on the dorsum of swine (N=3) using a 1.0 cm biopsy punch. Treatments were administered (0.20 ml) to each wound (N=6 wounds per group), and the wounds were dressed with standard occlusive dressing ([…]™, 3M Corporation, St. Paul, Minn.). Treatments were reapplied daily and dressings changed. Clinical wound healing observations and wound area (2 mm) measurements were performed on days 0, 3, 5, 7, 10, and 14 post-wounding. Wound area (2 mm) data were expressed as percentage (%) of wound healing. Animals were terminated on day 14 with wounds harvested and processed for histological evaluation. […] All peptide formulation treatment groups healed faster with greater rate of closure and re-epithelialization over time, as compared to the saline control (Group A).

[4] = test system: full thickness excisional wounds; assay: Histopathology of swine dermal wounds; assay type: in vivo; parameters: Inflammation, mean histopathology score / Angiogenesis, mean histopathology score / Granulation, mean histopathology score / Epithelization, mean histopathology score: scale not given here
Protocol: The characteristics that were measured are required to indicate features of a well-healed wound. Inflammation should be low and re-epithelialization high.
as §4
The histology correlated with the clinical observations. […] There were minimal differences in the amount or character of granulation tissue, inflammation, and angiogenesis. All the wounds were well filled and vascularized.

[5] = test system: human corneal epithelial cell (HCEC); assay: HCEC chemotaxis, modified Boyden chemotaxis chamber; assay type: cell-based; conditions: for HCEC migration compared with the whole CAP37 protein, in words: 120-146QH at 10^−6 M and 10^−8 M, 120-146QR concentration not stated; for migration of HCECs vs buffer control, in words: 3 hours at 37° C.
Protocol: The effect of buffer control (0.1% BSA in Gey's buffer), heparin binding-epidermal growth factor (HB-EGF, 50 ng/ml), recombinant CAP37 (rCAP37, 250 ng/ml), 120-146QH (10^−12M, 10^−10 M, 10^−8 M, 10^−6M, and 10^−4M,) and 120-146QR (10^−10M, 10^−8M, 10^−6M, and 10^−4M) on HCEC chemotaxis was determined by the modified Boyden chemotaxis chamber method. HCEC chemotaxis was measured in response to HB-EGF, rCAP37, and peptides 120-146QH (SEQ ID NO:29) and 120-146QR (SEQ ID NO:28) after incubation for 3 hours at 37° C. Chemotaxis is expressed as a percent migration. The buffer control (no chemoattractant) is arbitrarily assigned the value of 100% migration. Data are expressed as means±SEM and are calculated from 6 observations for each test point. **P<0.01 by Wilcoxon signed-rank test as compared to controls.
Chemotaxis: Chemotaxis assays were performed using the modified Boyden chemotaxis chamber assay. Peptide 120-146QH was used at 10^−4 M, 10^−6 M, 10^−8 M, 10^−10 M, and 10^−12 M, and peptide 120-146QR was used at 10^−4 M, 10^−6 M, 10^−8M, and 10^−10M.

[6] = test system: Acinetobacter baumannii ATCC BAA-747; assay: In vitro bactericidal assay, A. baumannii ATCC BAA-747 (FIGS. 10-11); assay type: cell-based; conditions: 60 minutes, peptides 3.12-25 μM, gentamicin 4 μg/ml
Protocol: as §1, with “6.25” for “6.25,”, “Acinetobacter baumannii” for “Pseudomonas aeruginosa”, “BAA-747™” for “27853™”, “60” for “180”, “5.5.” for “7.2.”
as §1, with “6.25” for “6.25,”, “Acinetobacter baumannii” for “Pseudomonas aeruginosa”, “BAA-747™” for “27853™”, “60” for “180”
as §2, §3

[7] = antibiotic alone, 1×10^5 CFU/well, 24 hours, read-out: MIC
[8] = wounds harvested on day 14, 3 mg/ml

## CO/N=C(\C(=O)N[C@@H]1C(=O)N2C(C(=O)O)=C(COC(C)=O)CS[C@H]12)c1csc(N)n1 [Cefotaxime]
[1]; Cefotaxime alone at 2.8 μg/ml
  bactericidal impact on growth curve, in words: very little bactericidal impact
[1]; [7]
  MIC: 15 µg/mL

## C[C@H]1COc2c(N3CCN(C)CC3)c(F)cc3c(=O)c(C(=O)O)cn1c23 [Levofloxacin]
[1]; [7]
  MIC: 15 µg/mL
[1]; in the presence of 3.04 μg/ml of peptide BCC02-5RMP, read-out: MIC of Levofloxacin with peptide
  MIC: 3.5 µg/mL

## (AEEP)-(AEEP)-RRRRGTRCQVAGWGSQHSGGRLSRFPRFVNVR ([PEG2][PEG2]RRRRGTRCQVAGWGSQHSGGRLSRFPRFVNVR) [120-146QH-5RMP]
[2]; FIG. 14, pH 5.5, 180 minutes, even at the lower concentration (75 μg/ml)
  reduction in CFU: ~6 log
[3]; Day 0
  Mean Wound Healing (%): 0.0%
[3]; Day 3
  Mean Wound Healing (%): 22.5%
[3]; Day 5
  Mean Wound Healing (%): 34.1%
[3]; Day 7
  Mean Wound Healing (%): 64.1%
[3]; Day 10
  Mean Wound Healing (%): 93.7%
[3]; Day 14
  Mean Wound Healing (%): 98.0%
[3]; days 10 and 14 post-wounding, 3 mg/ml
  percentage of wound healing vs saline control, in words: significant (p<0.05) increase in the percentage of wound healing
[4]; day 14 post-wounding
  epidermal resurfacing and maturation vs saline control, in words: greater extent of epidermal resurfacing and maturation of the epidermis
[4]; [8]
  Angiogenesis, mean histopathology score: 1.3
  Epithelization, mean histopathology score: 4.0
  Granulation, mean histopathology score: 4.0
  Inflammation, mean histopathology score: 0.5

## (AEEP)-(AEEP)-RRRRGTRCQVAGWGSWHSGGRLSRFPRFVNVR ([PEG2][PEG2]RRRRGTRCQVAGWGSWHSGGRLSRFPRFVNVR) [120-146WH-5RMP]
[2]
  predicted killing capabilities: superior killing capabilities
  bactericidal effectiveness concluded by extrapolation: highly effective

## (AEEP)-(AEEP)-RRRRGTRCQVAGWGSWRSGGRLSRFPRFVNVR ([PEG2][PEG2]RRRRGTRCQVAGWGSWRSGGRLSRFPRFVNVR) [120-146WR-5RMP]
[2]
  predicted killing capabilities: superior killing capabilities
  bactericidal effectiveness concluded by extrapolation: highly effective

## GTRCQVAGWGSQHSGGRLSRFPRFVNV (derivative of peptide of Homo sapiens CAP37 protein) [Peptide 120-146QH]
[2]; FIG. 14, pH 5.5, 180 minutes
  activity in in vitro killing assays, in words: relatively inactive
[5]
  HCEC migration compared with the whole CAP37 protein, in words: comparable to the migration obtained with the whole CAP37 protein
[5]; peptide at 10^−4 M, 10^−6 M, 10^−8 M, and 10^−10 M
  migration of HCECs vs buffer control, in words: significantly increase migration of HCECs

## GTRCQVAGWGSQRSGGRLSRFPRFVNV (listed as Homo sapiens) [Peptide 120-146QR]
[2]; FIG. 14, pH 5.5, 180 minutes
  activity in in vitro killing assays, in words: relatively inactive
[5]
  HCEC migration compared with the whole CAP37 protein, in words: less than the migration obtained with the whole protein
[5]; peptide at 10^−6 M and 10^−8 M
  migration of HCECs vs buffer control, in words: significantly increase migration of HCECs

## gentamicin [reference compound]
[2]; 120-146WR at 25 μM, gentamicin 4 μg/ml
  bactericidal activity, in words: highly active
[2]; pH 5.5, 180 minutes, gentamicin 4 μg/ml
  reduction of CFU/ml: 2 log
[2]; pH 5.5, 180 minutes, peptides 3.12-25 μM, gentamicin 4 μg/ml
  bactericidal activity, in words: not as effective as the peptides
[6]; pH 5.5
  bactericidal activity, in words: unable to kill the bacteria
[6]; pH 7.2
  bactericidal activity, in words: active against the bacteria
